For data set [1], the system named is MDA-MB-231 xenograft tumor. Nature of the data set: In vivo tumorigenicity study, MDA-MB-231 xenograft mice. The arrangement: species or system NOD/ShiJic-SCID mice. How it is done: (§1) Animal study was approved by the UiTM Committee on Animal Research and Ethics (Ethic approval number: UiTM CARE 278/2019 (05/04/2019)). All animal experiments were conducted in accordance with standard ethical guidelines. Six- to eight-week-old female SPF NOD/ShiJic-SCID mice were obtained from Nomura Siam International (Bangkok, Thailand). All mice were housed in the pathogen-free environment under controlled conditions (temperature 20–26 °C, humidity 40–70%, light/dark cycle 12 h/12 h) and received water and food ad libitium. To evaluate the tumorigenesis in the animal model, the highly aggressive MDA-MB-231 cell lines were injected into SCID mice to induce the breast cancer model. MDA-MB-231 cell lines (ATCC® HTB-26™) were grown in Leibovitz’s medium (L15) (HyClone, Rd. Logan, UT, USA) with 10% fetal bovine serum (FBS) (Gibco, Gaithersburg, MD, USA) and 1% penicillin-streptomycin (Beyotime Biotechnology, Haimen, Jiangsu, China) in a humidified incubator at 37 °C without CO2. Mice were subcutaneously injected with 3 × 10^6/100 μL MDA-MB-231 cells into the right flank region in the SCID mice.
(§2) Body weight and tumor volume were measured weekly up to two months. The tumor-growth-inhibition rate (I.R.) was calculated using the following formula: I.R. (%) = {[(Average tumor volume of the control − average tumor volume of the treated group)/Average tumor volume of the control] * 100%}. After two months, serum blood was collected for biochemical analysis. Subsequently, all organs (liver, kidney, spleen, heart and lung) and tumors were excised, weighted and calculated as relative organ weight (expressed as the percentage of organ weight to body weight). The tumors were snap-frozen in liquid nitrogen for gene expression analysis later.

A short description of data set [2]: Body weight and relative organ weight in MDA-MB-231 xenograft mice. It counts as in vivo, NOD/ShiJic-SCID mice. The conditions noted are these: up to eight weeks. How it is done:
as §1, with “All mice were housed in the pathogen-free environment under controlled conditions (temperature 20–26 °C, humidity 40–70%, light/dark cycle 12 h/12 h) and received water and food ad libitium.” left out, “HTB-26TM)” for “HTB-26™)”, “Leibovitz's” for “Leibovitz’s”, “mice. […] Body weight and tumor volume were measured weekly up to two months. […] Subsequently, all organs (liver, kidney, spleen, heart and lung) and tumors were excised, weighted and calculated as relative organ weight (expressed as the percentage of organ weight to body weight). […]” for “mice.”

For data set [3], the system named is calcineurin (CaN). In words: Serum ELISA of calcineurin in xenograft mice. Particulars: high-dose M1S9 or TAM 30 mg/kg vs non-treated xenograft mice. It counts as in vivo. How it is done:
as §2
(§3) Serum blood was subjected to biochemical analysis on calcineurin (CaN), estrogen (ES) and vascular endothelial cell growth factor (VEGF) proteins using ELISA kits (FineTest, Wuhan, China), following the manufacturer’s instructions. […] Eluted RNA was quantitated and purity-checked using UV-absorbance-based NanoDrop® (Thermo Scientific, Wilmington, NC, USA) and Agilent 2100 Bioanalyzer RNA 6000 Nano Chip (Agilent, Palo Alto, CA, USA), respectively. […] Threshold cycle (CT) of each gene was analyzed for ΔΔCT after normalization using housekeeping genes in the web-based RT^2 Profiler Data Analysis Software (https://www.qiagen.com/my/shop/genes-and-pathways/data-analysis-center-overview-page/).

In data set [4] the test system is estrogen (ES). In words: Serum ELISA of estrogen in xenograft mice. It counts as in vivo. Particulars: TAM 30 mg/kg vs non-treated xenograft mice. On the technique in general: In an ELISA, binding on a coated surface is turned into a signal by an enzyme label.
Data set [5] has as its system vascular endothelial cell growth factor (VEGF). In words: Serum ELISA of VEGF in xenograft mice. The conditions noted are these: high-dose M1S9 or TAM 30 mg/kg vs non-treated xenograft mice. It counts as in vivo. How it is done: as §2, §3
The test system of data set [6] is 84 key human breast cancer genes in MDA-MB-231 xenograft tumor. In words: Human Breast Cancer RT2 Profiler PCR array on excised tumor. It counts as in vivo, mice. Particulars: TAM-treated vs non-treated, p < 0.05. As for the experimental part: as §2
Serum blood was subjected to biochemical analysis on calcineurin (CaN), estrogen (ES) and vascular endothelial cell growth factor (VEGF) proteins using ELISA kits (FineTest, Wuhan, China), following the manufacturer’s instructions. The Human Breast Cancer RT^2 Profiler PCR array (Rotor-Gene® Format) (PAHS-131ZR, Qiagen® GmbH, Hilden, Germany) was used to profile the expression of 84 genes associated with key human breast cancer pathways. Briefly, total RNA was isolated from pulverized tumor tissues of non-treated (negative control), high-dose M1S9-treated mice and TAM-treated (positive control) using RNeasy® Lipid Tissue Mini kit (Qiagen® GmbH, Hilden, Germany). Three biological replicates were prepared from each group. Eluted RNA was quantitated and purity-checked using UV-absorbance-based NanoDrop® (Thermo Scientific, Wilmington, NC, USA) and Agilent 2100 Bioanalyzer RNA 6000 Nano Chip (Agilent, Palo Alto, CA, USA), respectively. A total of 1000 ng of RNA sample was converted to cDNA using RT^2 First Strand Kit (Qiagen® GmbH, Hilden, Germany) according to the manufacturer’s protocol. The cDNA was then mixed with RT^2 SYBR Green ROX FAST Mastermix and RNase-free water before dispensing into the array and then subjected to Rotor-Gene® Q real time PCR cycler (Qiagen® GmbH, Hilden, Germany) for analysis. Threshold cycle (CT) of each gene was analyzed for ΔΔCT after normalization using housekeeping genes in the web-based RT^2 Profiler Data Analysis Software (https://www.qiagen.com/my/shop/genes-and-pathways/data-analysis-center-overview-page/).

Data set [7] in a line: Ferric reducing antioxidant power (FRAP) assay. The conditions noted are these: mean ±2 standard deviation (n = 3). As for the experimental part: Moringa mixtures were subjected to phytochemical analysis following methods described by Harborne (1998) and Kokate (2005), which are based on visual observation of color changes or the formation of precipitates. Quantitative analysis of total flavonoid content (TFC) and total phenolic content (TPC) of moringa mixtures were determined spectrophotometrically by the aluminum calorimetric method (quercetin as the reference standard) and Folin–Ciocalteu method (gallic acid as the reference standard) with minor modifications, respectively. […] These antioxidant assays were carried out according to Yang et al. (2011) with slight modifications. Detailed steps were described previously by Abdul Hisam et al. (2018). All the experiments were conducted in triplicate.

The text below walks through data of paper PMC7601446, “Significant Decreased Expressions of CaN, VEGF, SLC39A6 and SFRP1 in MDA-MB-231 Xenograft Breast Tumor Mice Treated with Moringa oleifera Leaves and Seed Residue (MOLSr) Extracts” (Nutrients, 2020).

In the case of `CC/C(=C(\c1ccccc1)c1ccc(OCCN(C)C)cc1)c1ccccc1` [TAM, tamoxifen], in data set [1] (M1S9 all three doses, TAM 30 mg/kg, up to six weeks, p < 0.05), the “tumor volume compared to the control mice” value was “significant reduction”. Besides, in data set [1] (TAM 30 mg/kg subcutaneously, sixth week), the “tumor growth inhibition (highest inhibition rate)” value is listed as “up to 80.5%”. In data set [1] (TAM 30 mg/kg subcutaneously, third week), this compound had a tumor growth inhibition of 69.1%. In addition, in data set [2], the body weight changes entry is recorded as “no significant difference”. For the same compound, the CaN protein level result in data set [3] is given as “decreased significantly”. For the same compound, the ES protein level result in data set [4] was “decreased significantly”. Moreover, the VEGF protein level entry in data set [5] is recorded as “decreased significantly”. Besides, in data set [6], the AR gene expression entry is listed as “induced significantly”, the CTNNB1 gene expression entry is “suppressed significantly”, the ESR1 gene expression entry is “induced significantly” and the IL6 gene expression result is on record as “induced significantly”. For the same compound, in data set [6], the MYC gene expression entry is given as “induced significantly”, the NR3C1 gene expression entry was “induced significantly” and the THBS1 gene expression entry was “induced significantly”.
In the case of `O=C1O[C@H]([C@@H](O)CO)C(O)=C1O` [ascorbic acid], the FRAP in data set [7] is 172.41 ± 12.6 ^$ µg Trolox/mg.
